Measurements taken from paper PMC8196714, “Design, Radiosynthesis and Preliminary Biological Evaluation in Mice of a Brain-Penetrant ^18F-Labelled σ2 Receptor Ligand” (International Journal of Molecular Sciences, 2021).

Tests used:
[1] = molecular target: T1, σ2 receptors expressed in F98 cells (Rattus norvegicus, UniProt Q5U3Y7); test: Homologous competition with membrane homogenates of F98 cells; assay type: binding
T1 construct: σ2 receptors expressed in F98 cells; endogenous in cells; host or cells: F98 rat glioma cells
T1 sequence (Q5U3Y7 1-176): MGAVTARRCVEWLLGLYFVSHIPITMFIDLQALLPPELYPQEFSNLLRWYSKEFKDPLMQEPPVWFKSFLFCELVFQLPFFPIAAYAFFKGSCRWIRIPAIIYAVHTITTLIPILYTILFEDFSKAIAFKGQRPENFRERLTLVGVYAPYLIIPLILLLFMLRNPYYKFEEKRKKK
From the text: (§1) Initially, we investigated the binding of [^18F]RM273 on rat brain slices by autoradiography to compare the distribution pattern with that of established σ2 receptor ligands and to examine the target specificity. The highest binding was found in the cortical areas and hippocampal structures. […] Accordingly, we proceeded to investigate, in a rat glioblastoma model, the potential suitability of [^18F]RM273 for molecular characterization of cancer. At first, homologous competition studies using membrane homogenates of the rat glioma cell line F98 were performed to determine the σ2 receptor binding parameters of [^18F]RM273 cells (Figure 3).
Binding affinity experiments to assess the Ki values of test compounds towards rat σ2 receptors, human σ1 receptors, and rat VAChT were performed according to protocols previously published by our group. The same protocol was used to determine the KD and Bmax values of RM273 towards σ2 receptors expressed in F98 cells by homologous competition analyzing the displacement of [^18F]RM273 by RM273.
Figure 3 Determination of KD and Bmax values of [^18F]RM273. Homologous competition studies were performed by incubation of [^18F]RM273 at 5–7 different molar activities either with membrane homogenates of F98 cells (open squares) or cryosections of rat brain (n = 2) obtained about three weeks after stereotactic implantation of F98 cells (tumor region = filled circles; contralateral region = open circles). […] For the F98 cell homogenate, the maximum number of binding sites Bmax was calculated by division of the specific binding by the fractional occupancy fp (Bmax = 36,000 fmol/mg protein).

σ2 receptor = molecular target: T2, σ2 receptor (Rattus norvegicus, UniProt Q5U3Y7); test: In vitro autoradiography on rat brain cryosections (healthy and orthotopic F98 glioblastoma); assay type: binding; set-up: from tissue; host or cells: rat brain cryosections (SPRD healthy; Fisher F344 with orthotopic F98 glioblastoma); settings: for specific binding sites: at 1.5 nM [18F]RM273; for Kd: rat brain cryosections, n = 2
T2 sequence (Q5U3Y7 1-176): T1 sequence (Q5U3Y7 1-176)
From the text: as §1
We subsequently investigated the binding parameters of [^18F]RM273 by in vitro autoradiography using cryosections of rat brains obtained three weeks after stereotactic implantation of F98 rat glioblastoma cells into the left striatum. Initially, we performed a homologous displacement study to directly compare the binding sites of the new radioligand in a healthy brain and a brain tumor. The inhibition curves presented in Figure 3 indicate binding of [^18F]RM273 to single binding sites in both brain regions. […] Further supporting the assumption of a tumor-specific overexpression of σ2 receptors, a remarkably high density of binding sites of [^18F]RM273 in the F98 tumor tissue was observed (Figure 4). Compared to the healthy tissue (contralateral side), about three times more specific binding sites of [^18F]RM273 were estimated for the tumor region (32 × 10^−9 mol/L vs. 94 × 10^−9 mol/L at 1.5 nM [^18F]RM273).
In vitro autoradiography was performed using cryosections of brains of a healthy rat (SPRD, female, 250 g; Medizinisch-Experimentelles Zentrum, Universität Leipzig, Leipzig, Germany) and brains obtained from rats (Fisher F344/HanZtmRj, male, ≈260 g; Janvier Labs, Le Genest-Saint-Isle, France) 23 days after stereotactic implantation of 5 × 10^4 F98 cells in the […] striatum (n = 2).
Immediately after isolation, the brains were frozen by immersion in isopentane at −25 °C. Cryosections of 12 μm (Microm HM560 cryostat, Thermo Scientific, Schwerte, Germany) were mounted on microscopic glass slides, dried at room temperature, and stored at −25 °C. For the experiment, the slices were dried at room temperature under a stream of cold air before pre-incubation in PBS, pH 7.4, at room temperature for 15 min. […] Co-incubation with serial dilutions of RM273 (10^−10–10^−6 M) was performed to determine an inhibition curve. After 60 min, the incubation at room temperature was terminated by decanting and washing the slides by two consecutive incubations in ice-cold washing buffer (50 mM TRIS-HCl, pH 7.4 at 4 °C) for two min each, followed by dipping in ice-cold demineralized water for 5 sec and drying under a stream of cold air. In parallel, for subsequent quantification of the data obtained from the homologous competition experiment, defined volumes, and thus defined activities of the radioligand solution, were pipetted onto a microscopic glass slide (0.5–3 μL = 0.0355–0.213 kBq) and dried. Afterwards the tissue samples along with the standards were exposed to an ^18F-sensitive phosphor screen (ABC) for two hours. Image acquisition was performed using a phosphorimager (HD-CR 35; DÜRR NDT GmbH & Co. KG, Bietigheim-Bissingen, Germany). Analysis of the digitized images was performed by image analysis software (AIDA; Elysia-raytest GmbH, Straubenhardt, Germany).
Irregular regions of interest (ROI) were drawn on the standard spots and the different brain regions, which were confirmed by Nissl staining of the identical brain sections. Optical density measured in each ROI was expressed as quantum levels per unit area (QL/pixel) with a pixel size of 12.5 μm^2. From the calibration curve obtained from the standards by plotting QL vs. activity, the QL values of the ROIs were converted to activity values followed by conversion to chemical concentration of RM273 based on the molar activity of [^18F]RM273. […]

SMILES: COc1cc2c(cc1OC)CN(CCCCn1ccc3ccc([18F])nc31)CC2 [[^18F]RM273]
- Bmax equivalent ([1]; F98 cell homogenate, converted from fmol/mg protein): about 3600 fmol/mg tissue
- Bmax ([1]; F98 cell membrane homogenate): 36,000 fmol/mg protein
- Kd ([1]; F98 cell membrane homogenate, homologous competition): 12 nM
- specific binding sites (σ2 receptor; F98 tumor region): 9.4e-08 mol/L
- Kd (σ2 receptor; contralateral striatum / contralateral brain): 2.93 nM
- specific binding sites (σ2 receptor; healthy tissue (contralateral side)): 3.2e-08 mol/L
- Kd (σ2 receptor; orthotopically grown F98 tumor region): 4.82 nM
